According to patent publication US8492310B2, “Herbicidal compositions containing benzoylpyrazole compounds” (priority 2008, dated 2013):
Where two headings read alike, the source gives them in different places.

What was measured:
Type in all cases: in vivo
[1] = test system: prickly sida (Sida spinosa L.); experiment: Foliar treatment pot test, visual growth inhibition rate, prickly sida (SS); settings: Sida spinosa, foliar, 336 h, 3.0-3.3 leaf stage, 14 DAT, read-out: Growth inhibition rate (%) of SS Measured value
From the text: (§1) When the herbicidal activity in a case where two active ingredients are combined, is larger than the simple sum of the respective herbicidal activities of the two active ingredients (the expected activity), it is called a synergistic effect. The activity expected by the combination of two active ingredients can be calculated as follows (Colby S. R., “Weed”, vol. 15, p. 20-22, 1967). E=α+β−(α×β÷100) where
(§2) Upland field soil was put into a 1/1,000,000 hectare pot, and seeds of various plants (barnyardgrass (Echinochloa crus-qalli L.), crabgrass (Digitaria sanguinalis L.), giant foxtail (Setaria faberi Herrm.), velvetleaf (Abutilon theophrasti MEDIC.) and prickly sida (Sida spinosa L.)) were sown. When the respective plants reached predetermined leaf stage, herbicidal compositions in predetermined amounts were diluted with water in an amount corresponding to 300 L/ha and applied for foliar treatment by a small sprayer.
(§3) Further, in accordance with the above Colby's formula, the growth inhibition rate (calculated value) was calculated. In Tables, with respect to the compound Q, Compound Nos. in Table 1 are described, and with respect to other herbicidal compounds, common names are described. Further, in Tables, barnyardgrass is represented by “EC”, crabgrass by “DS”, giant foxtail by “SF”, velvetleaf by “AT”, and prickly sida by “SS”.

[2] = test system: velvetleaf (Abutilon theophrasti MEDIC.); experiment: Foliar treatment pot test, visual growth inhibition rate, velvetleaf (AT); settings: Abutilon theophrasti, foliar
From the text: as §1, §2, §3

[3] = test system: crabgrass (Digitaria sanguinalis L.); experiment: Foliar treatment pot test, visual growth inhibition rate, crabgrass (DS); settings: Digitaria sanguinalis, foliar; for inhibition at […]: 2.5 g/ha
From the text: as §1, §2, §3

[4] = 504 h, 4.0-5.1 leaf stage, 21 DAT, read-out: Growth inhibition rate (%) of DS Measured value
[5] = 504 h, 3.0-3.5 leaf stage, 21 DAT, read-out: Growth inhibition rate (%) of AT Measured value
[6] = 528 h, 4.5-5.0 leaf stage, 22 DAT, read-out: Growth inhibition rate (%) of AT Measured value

CCOCN(C(=O)CCl)c1c(C)cccc1CC [Acetochlor, acetochlor]
inhibition at 100 g/ha ([1]; 100 g/ha): 0% | inhibition at 200 g/ha ([1]; 200 g/ha): 0% | inhibition at 400 g/ha ([1]; 400 g/ha): 10% | inhibition at 800 g/ha ([1]; 800 g/ha): 30% | inhibition at 63 g/ha ([2]; 168 h, 2.3-3.5 leaf stage, 7 DAT, 63 g/ha, read-out: Growth inhibition rate (%) of AT Measured value): 0% | inhibition at 125 g/ha ([2]; 168 h, 2.3-3.5 leaf stage, 7 DAT, 125 g/ha, read-out: Growth inhibition rate (%) of AT Measured value): 0% | inhibition at 250 g/ha ([2]; 168 h, 2.3-3.5 leaf stage, 7 DAT, 250 g/ha, read-out: Growth inhibition rate (%) of AT Measured value): 0% | inhibition at 500 g/ha ([2]; 168 h, 2.3-3.5 leaf stage, 7 DAT, 500 g/ha, read-out: Growth inhibition rate (%) of AT Measured value): 10% | inhibition at 750 g/ha ([2]; 168 h, 2.3-3.5 leaf stage, 7 DAT, 750 g/ha, read-out: Growth inhibition rate (%) of AT Measured value): 0% | inhibition at 150 g/ha ([2]; 336 h, 3.0-4.0 leaf stage, 14 DAT, 150 g/ha, read-out: Growth inhibition rate (%) of AT Measured value): 0% | inhibition at 300 g/ha ([2]; 480 h, 3.1-3.4 leaf stage, 20 DAT, 300 g/ha, read-out: Growth inhibition rate (%) of AT Measured value): 0% | inhibition at 400 g/ha ([2]; 504 h, 3.0-3.8 leaf stage, 21 DAT, 400 g/ha, read-out: Growth inhibition rate (%) of AT Measured value): 0% | inhibition at 63 g/ha ([3]; 168 h, 3.5-5.0 leaf stage, 7 DAT, 63 g/ha, read-out: Growth inhibition rate (%) of DS Measured value): 0% | inhibition at 125 g/ha ([3]; 168 h, 3.5-5.0 leaf stage, 7 DAT, 125 g/ha, read-out: Growth inhibition rate (%) of DS Measured value): 0% | inhibition at 250 g/ha ([3]; 168 h, 3.5-5.0 leaf stage, 7 DAT, 250 g/ha, read-out: Growth inhibition rate (%) of DS Measured value): 0% | inhibition at 500 g/ha ([3]; 168 h, 3.5-5.0 leaf stage, 7 DAT, 500 g/ha, read-out: Growth inhibition rate (%) of DS Measured value): 0% | inhibition at 750 g/ha ([3]; 168 h, 3.5-5.0 leaf stage, 7 DAT, 750 g/ha, read-out: Growth inhibition rate (%) of DS Measured value): 10% | inhibition at 150 g/ha ([3]; 336 h, 4.0-5.0 leaf stage, 14 DAT, read-out: Growth inhibition rate (%) of DS Measured value): 0% | inhibition at 400 g/ha ([3]; 504 h, 3.5-4.3 leaf stage, 21 DAT, 400 g/ha, read-out: Growth inhibition rate (%) of DS Measured value): 0% | inhibition at 150 g/ha [3, 4]: 0%

COc1nc(C)nc(NC(=O)NS(=O)(=O)c2ccccc2CCC(F)(F)F)n1 [Prosulfuron, prosulfuron]
inhibition at 10 g/ha [2, 5]: 100% | inhibition at 1.25 g/ha ([2]; 504 h, 4.0-4.3 leaf stage, 21 DAT, 1.25 g/ha, read-out: Growth inhibition rate (%) of AT Measured value): 50% | inhibition at 5 g/ha ([2]; 504 h, 4.0-4.3 leaf stage, 21 DAT, read-out: Growth inhibition rate (%) of AT Measured value): 95% | inhibition at 5 g/ha ([2]; 528 h, 4.1-4.5 leaf stage, 22 DAT, read-out: Growth inhibition rate (%) of AT Measured value): 90% | inhibition at 5 g/ha [2, 6]: 0% | inhibition at 10 g/ha [2, 6]: 0% | inhibition at 1.25 g/ha ([3]; 504 h, 4.0-5.1 leaf stage, 21 DAT, 1.25 g/ha, read-out: Growth inhibition rate (%) of DS Measured value): 10% | inhibition at […] [3, 4]: 5% | inhibition at 5 g/ha [3, 4]: 0% | inhibition at 5 g/ha ([3]; 528 h, 4.0-5.0 leaf stage, 22 DAT, read-out: Growth inhibition rate (%) of DS Measured value): 0% | inhibition at […] ([3]; 528 h, 4.8-5.5 leaf stage, 22 DAT, read-out: Growth inhibition rate (%) of DS Measured value): 0% | inhibition at 10 g/ha ([3]; 552 h, 4.0-5.1 leaf stage, 23 DAT, 10 g/ha, read-out: Growth inhibition rate (%) of DS Measured value): 0%

Cn1nc(C(F)(F)F)c(CS(=O)(=O)C2=NOC(C)(C)C2)c1OC(F)F [Pyroxasulfone, pyroxasulfone]
inhibition at 50 g/ha ([2]; 312 h, 3.3-4.2 leaf stage, 13 DAT, read-out: Growth inhibition rate (%) of AT Measured value): 5% | inhibition at 50 g/ha ([2]; 336 h, 3.0-4.0 leaf stage, 14 DAT, read-out: Growth inhibition rate (%) of AT Measured value): 0% | inhibition at 50 g/ha [2, 5]: 0% | inhibition at 50 g/ha ([3]; 312 h, 4.4-5.0 leaf stage, 13 DAT, 50 g/ha, read-out: Growth inhibition rate (%) of DS Measured value): 0% | inhibition at 100 g/ha ([3]; 336 h, 4.0-5.0 leaf stage, 14 DAT, 100 g/ha, read-out: Growth inhibition rate (%) of DS Measured value): 5% | inhibition at 50 g/ha ([3]; 504 h, 4.0-5.0 leaf stage, 21 DAT, 50 g/ha, read-out: Growth inhibition rate (%) of DS Measured value): 10%

CCS(=O)(=O)c1cccnc1S(=O)(=O)NC(=O)Nc1nc(OC)cc(OC)n1 [Rimsulfuron, rimsulfuron]
inhibition at 20 g/ha ([2]; 504 h, 3.5-4.3 leaf stage, 21 DAT, 20 g/ha, read-out: Growth inhibition rate (%) of AT Measured value): 99% | inhibition at 15 g/ha ([2]; 552 h, 3.0-3.5 leaf stage, 23 DAT, 15 g/ha, read-out: Growth inhibition rate (%) of AT Measured value): 70% | inhibition at 15 g/ha ([3]; 552 h, 4.0-5.1 leaf stage, 23 DAT, 15 g/ha, read-out: Growth inhibition rate (%) of DS Measured value): 98%

CS(=O)(=O)c1ccc(C(=O)C2C(=O)CCCC2=O)c(Cl)c1 [Sulcotrione]
inhibition at 31 g/ha ([2]; 576 h, read-out: Growth inhibition rate (%) of AT Measured value, 3.2-4.1 leaf stage, 24 DAT, 31 g/ha): 60% | inhibition at 25 g/ha ([3]; 480 h, read-out: Growth inhibition rate (%) of DS Measured value, 3.7-4.0 leaf stage, 20 DAT, 25 g/ha): 45% | inhibition at 50 g/ha ([3]; 480 h, read-out: Growth inhibition rate (%) of DS Measured value, 3.7-4.0 leaf stage, 20 DAT, 50 g/ha): 60% | inhibition at 100 g/ha ([3]; 480 h, read-out: Growth inhibition rate (%) of DS Measured value, 3.7-4.0 leaf stage, 20 DAT, 100 g/ha): 80% | inhibition at 50 g/ha ([3]; 480 h, read-out: Growth inhibition rate (%) of DS Measured value, 5.1-5.2 leaf stage, 20 DAT, 50 g/ha): 60% | inhibition at 100 g/ha ([3]; 480 h, read-out: Growth inhibition rate (%) of DS Measured value, 5.1-5.2 leaf stage, 20 DAT, 100 g/ha): 95%
